The text below walks through data of patent US8912200B2, “Alkynyl substituted pyrimidinyl-pyrroles active as kinases inhibitors” (Nerviano Medical Sciences S.R.L., priority 2011, dated 2014).

One assay addresses T1, Lyn full length (Homo sapiens, UniProt P07948).
T1 construct: The assay has been performed using Lyn full length
The assay can be described thus: Biochemical assay for inhibitors of Lyn (Src family) kinase activity. To be noted: Lyn full length 1 nM, 25 μM ATP. A digest of the protocol: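 Radiometric Lyn assay: 1 nM full-length enzyme in 50 mM HEPES pH 7.5 with 25 μM ATP plus 33P-γ-ATP and 250 μM ABI 1 peptide, 60 min at room temperature. Unreacted ATP removed by Dowex resin; supernatant β-counted. IC50 from sigmoidal fit of ten-point 1:3 dilution curves.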

The next assay addresses T2, JAK2 kinase domain (Homo sapiens, UniProt O60674).
T2 construct: commercially available JAK2 kinase domain; purchased Invitrogen, Eugene, Oreg
The assay can be described thus: Biochemical assay for inhibitors of JAK kinase activity (JAK2, 33P-γ-ATP/dowex resin). The settings on record: JAK2 kinase domain 1 nM, 60 μM ATP. Summed up:
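Human JAK2 (1 nM) phosphorylated peptide BioDBn*306 (64 μM) with 60 μM ATP plus 3 nM 33P-γ-ATP in HEPES pH 7.5/MgCl2/DTT buffer, 60 min at room temperature. Unreacted ATP captured by Dowex resin; supernatant β-counted. IC50 from sigmoidal fit of ten-point 1:3 dilution curves.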

The test system of assay [1] is JAK2 dependent human megakaryoblastic leukemia cell line SET-2. The assay can be described thus: Cell proliferation assay (CellTiter-Glo, 72 hours). Format: cell-based. To be noted: SET-2 cells. A digest of the protocol:
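About 5×10^3 SET-2 cells per well, in RPMI-1640 with 10% FBS, were exposed to inhibitor dilutions for 72 hours at 37 °C, 5% CO2. Viability read by CellTiter-Glo luminescence. IC50 from sigmoidal fitting of 8-point dilution curves.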

T2 sequence (O60674 849-1124 limits assumed): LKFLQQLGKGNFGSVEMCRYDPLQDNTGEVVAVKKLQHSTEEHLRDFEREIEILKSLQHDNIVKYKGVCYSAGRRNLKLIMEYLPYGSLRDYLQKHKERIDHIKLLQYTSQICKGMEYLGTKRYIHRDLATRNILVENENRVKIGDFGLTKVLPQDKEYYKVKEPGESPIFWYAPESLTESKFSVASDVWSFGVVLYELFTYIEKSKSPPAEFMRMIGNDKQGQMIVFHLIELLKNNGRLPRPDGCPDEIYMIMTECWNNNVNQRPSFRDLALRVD
T1 sequence (P07948 whole entry): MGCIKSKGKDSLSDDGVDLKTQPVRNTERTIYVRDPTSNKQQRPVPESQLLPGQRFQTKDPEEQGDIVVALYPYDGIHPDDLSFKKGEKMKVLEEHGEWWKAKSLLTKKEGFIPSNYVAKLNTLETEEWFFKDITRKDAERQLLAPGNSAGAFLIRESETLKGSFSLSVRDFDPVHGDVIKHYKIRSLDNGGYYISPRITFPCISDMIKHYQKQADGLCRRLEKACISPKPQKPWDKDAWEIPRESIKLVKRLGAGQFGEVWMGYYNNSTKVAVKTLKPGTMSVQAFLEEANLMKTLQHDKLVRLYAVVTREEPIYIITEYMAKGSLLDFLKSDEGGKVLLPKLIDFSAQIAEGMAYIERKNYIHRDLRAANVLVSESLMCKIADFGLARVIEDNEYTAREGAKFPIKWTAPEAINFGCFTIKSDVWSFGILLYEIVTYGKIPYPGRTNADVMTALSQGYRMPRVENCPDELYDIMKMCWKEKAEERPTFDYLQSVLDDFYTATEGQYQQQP

As usually defined, the IC50 is the midpoint of a concentration-inhibition curve. For `Cc1ccc(Cl)cc1-c1[nH]c(-c2ccnc(N)n2)c(C#Cc2ccccc2NCCN(C)C)c1C(N)=O` [compound 87, 5-(2-Aminopyrimidin-4-yl)-2-(5-chloro-2-methylphenyl)-4-[(2-{[2-(dimethylamino)ethyl]amino}phenyl)ethynyl]-1H-pyrrole-3-carboxamide], the half-inhibitory concentration (IC50) against Lyn full length was found to be 24 nM; at JAK2 kinase domain, 13 nM; in assay [1] (Homo sapiens) it was 290 nM.
Consider `COc1cc(N2CCN(C)CC2)ccc1C#Cc1c(-c2ccnc(N)n2)[nH]c(-c2cc(Cl)ccc2C)c1C(N)=O` [compound 89, 5-(2-Aminopyrimidin-4-yl)-2-(5-chloro-2-methylphenyl)-4-{[2-methoxy-4-(4-methylpiperazin-1-yl)phenyl]ethynyl}-1H-pyrrole-3-carboxamide], for which the IC50 against Lyn full length is 4 nM; against JAK2 kinase domain it was 6 nM; in assay [1] (Homo sapiens), 260 nM.
Taken in the same sequence, the figures for `Cc1ccc(Cl)cc1-c1[nH]c(-c2ccnc(N)n2)c(C#Cc2cccc(N3CCN(C)CC3)c2)c1C(N)=O` [compound 90, 5-(2-Aminopyrimidin-4-yl)-2-(5-chloro-2-methylphenyl)-4-{[3-(4-methylpiperazin-1-yl)phenyl]ethynyl}-1H-pyrrole-3-carboxamide carboxamide] were 5 nM, 3 nM and 300 nM.
As for `Cc1ccc(Cl)cc1-c1[nH]c(-c2ccnc(N)n2)c(C#Cc2cccc(OC3CCN(C)CC3)c2)c1C(N)=O` [compound 91, 5-(2-Aminopyrimidin-4-yl)-2-(5-chloro-2-methylphenyl)-4-({3-[(1-methylpiperidin-4-yl)oxy]phenyl}ethynyl)-1H-pyrrole-3-carboxamide], the IC50 turned out to be 114 nM on Lyn full length, 5 nM against JAK2 kinase domain and 260 nM in assay [1] (Homo sapiens).
On to `Cc1ccc(Cl)cc1-c1[nH]c(-c2ccnc(N)n2)c(C#Cc2ccc(OC3CCN(C)CC3)cc2)c1C(N)=O` [compound 92, 5-(2-Aminopyrimidin-4-yl)-2-(5-chloro-2-methylphenyl)-4-({4-[(1-methylpiperidin-4-yl)oxy]phenyl}ethynyl)-1H-pyrrole-3-carboxamide], for which the half-inhibitory concentration (IC50) was 39 nM against Lyn full length, 5 nM at JAK2 kinase domain and 220 nM in assay [1] (Homo sapiens).
Regarding `Cc1ccc(Cl)cc1-c1[nH]c(-c2ccnc(N)n2)c(C#Cc2cc(N3CCN(C)CC3)ccc2F)c1C(N)=O` [compound 93, 5-(2-Aminopyrimidin-4-yl)-2-(5-chloro-2-methylphenyl)-4-{[2-fluoro-5-(4-methylpiperazin-1-yl)phenyl]ethynyl}-1H-pyrrole-3-carboxamide], the IC50 against Lyn full length was 93 nM; against JAK2 kinase domain it was 5 nM; in assay [1] (Homo sapiens), 230 nM.
The corresponding values for `Cc1ccc(Cl)cc1-c1[nH]c(-c2ccnc(N)n2)c(C#Cc2ccccc2NC2CCN(C)CC2)c1C(N)=O` [compound 94, 5-(2-Aminopyrimidin-4-yl)-2-(5-chloro-2-methylphenyl)-4-({2-[(1-methylpiperidin-4-yl)amino]phenyl}ethynyl)-1H-pyrrole-3-carboxamide] are 661 nM, 32 nM and 290 nM.
Taken in the same sequence, the figures for `Cc1ccc(Cl)cc1-c1[nH]c(-c2ccnc(N)n2)c(C#Cc2ccc(N3CCC(N4CCN(C)CC4)CC3)cc2)c1C(N)=O` [compound 95, 5-(2-Aminopyrimidin-4-yl)-2-(5-chloro-2-methylphenyl)-4-({4-[4-(4-methylpiperazin-1-yl)piperidin-1-yl]phenyl}ethynyl)-1H-pyrrole-3-carboxamide] were 281 nM, 8 nM and 400 nM.
Taken in the same sequence, the figures for `Cc1ccc(Cl)cc1-c1[nH]c(-c2ccnc(N)n2)c(C#Cc2ccc(N3CCC(N(C)C)CC3)cc2)c1C(N)=O` [compound 96, 5-(2-Aminopyrimidin-4-yl)-2-(5-chloro-2-methylphenyl)-4-({4-[4-(dimethylamino)piperidin-1-yl]phenyl}ethynyl)-1H-pyrrole-3-carboxamide] were 93 nM, 4 nM and 210 nM.
For `Cc1ccc(Cl)cc1-c1[nH]c(-c2ccnc(N)n2)c(C#Cc2ccc(N3CCC(N4CCCCC4)CC3)cc2)c1C(N)=O` [compound 97, 5-(2-Aminopyrimidin-4-yl)-4-{[4-(1,4′-bipiperidin-1′-yl)phenyl]ethynyl}-2-(5-chloro-2-methylphenyl)-1H-pyrrole-3-carboxamide], the figures for the IC50 (on Lyn full length; against JAK2 kinase domain; in assay [1] (Homo sapiens)) were 293 nM, 12 nM and 740 nM, respectively.
As to `Cc1ccc(Cl)cc1-c1[nH]c(-c2ccnc(N)n2)c(C#Cc2ccc(N3CCC(N4CCCC4)CC3)cc2)c1C(N)=O` [compound 98, 5-(2-Aminopyrimidin-4-yl)-2-(5-chloro-2-methylphenyl)-4-({4-[4-(pyrrolidin-1-yl)piperidin-1-yl]phenyl}ethynyl)-1H-pyrrole-3-carboxamide], the IC50 against Lyn full length is 208 nM; at JAK2 kinase domain, 36 nM; in assay [1] (Homo sapiens), 1640 nM.
Taken in the same sequence, the figures for `Cc1ccc(Cl)cc1-c1[nH]c(-c2ccnc(N)n2)c(C#Cc2ccc(N3CCNCC3)cc2)c1C(N)=O` [compound 99, 5-(2-Aminopyrimidin-4-yl)-2-(5-chloro-2-methylphenyl)-4-{[4-(piperazin-1-yl)phenyl]ethynyl}-1H-pyrrole-3-carboxamide] were 26 nM, 2 nM and 410 nM.
Take `CCc1ccc(Cl)cc1-c1[nH]c(-c2ccnc(N)n2)c(C#Cc2ccccc2NCCN(C)C)c1C(N)=O` [compound 101, 5-(2-Aminopyrimidin-4-yl)-2-(5-chloro-2-ethylphenyl)-4-[(2-{[2-(dimethylamino)ethyl]amino}phenyl)ethynyl]-1H-pyrrole-3-carboxamide]: the 50% inhibitory concentration (IC50) was found to be 25 nM against Lyn full length, 5 nM against JAK2 kinase domain and 200 nM in assay [1] (Homo sapiens).
Regarding `CCc1ccc(Cl)cc1-c1[nH]c(-c2ccnc(N)n2)c(C#Cc2cccc(OC3CCN(C)CC3)c2)c1C(N)=O` [compound 102, 5-(2-Aminopyrimidin-4-yl)-2-(5-chloro-2-ethylphenyl)-4-({3-[(1-methylpiperidin-4-yl)oxy]phenyl}ethynyl)-1H-pyrrole-3-carboxamide], the half-inhibitory concentration (IC50) turned out to be 6 nM on Lyn full length, 1 nM against JAK2 kinase domain and 240 nM in assay [1] (Homo sapiens).
The corresponding values for `CCc1ccc(Cl)cc1-c1[nH]c(-c2ccnc(N)n2)c(C#Cc2ccc(N3CCN(C)CC3)cc2)c1C(N)=O` [compound 103, 5-(2-Aminopyrimidin-4-yl)-2-(5-chloro-2-ethylphenyl)-4-{[4-(4-methylpiperazin-1-yl)phenyl]ethynyl}-1H-pyrrole-3-carboxamide] are 23 nM, 4 nM and 180 nM.
Consider “[(2-Aminophenyl)ethynyl]-4-(2-Amino-phenylethynyl)-5-(2-amino-pyrimidin-4-yl)-2-(5-chloro-2-methyl-phenyl)-1H-pyrrole-3-carboxamide [compound 74]”, for which the IC50 was determined as 13 nM on Lyn full length, 4 nM against JAK2 kinase domain and 120 nM in assay [1].
